Results on 23 compounds are retold here after ChEMBL document CHEMBL3272105, “Quantitative structure-activity studies on monoamine oxidase inhibitors” (J Med Chem, 1976).

A word on the logP: it is a log measure of how a compound divides between an organic and an aqueous phase.

One data set has as its system Rattus norvegicus. Briefly: Ratio of compound to iproniazid for in vivo inhibition of monoamine oxidase in rat brain assessed as increase in serotonin production after 16 hrs. It counts as functional.
Data set [1] in a line: Octanol-water partition coefficient, log P of the compound. The class given is physicochemical.

`CC(C)NNC(=O)c1ccccc1O`: in the data set with Rattus norvegicus, the Ratio is given as 0. The logP in data set [1] (read-out: logP) worked out at 1.46.

Turning to `CC(C)NNC(=O)c1ccccc1N`, the Ratio in the data set on Rattus norvegicus was determined as 60. The logP in data set [1] (read-out: logP) turned out to be 0.9.

Turning to `CC(C)NNC(=O)c1ccc(C(C)C)cc1`, the Ratio with Rattus norvegicus worked out at 97. Moreover, the logP in data set [1] (read-out: logP) is 3.66.

`COc1ccc(C(=O)NNC(C)C)cc1`: the Ratio in the data set on Rattus norvegicus is listed as 63. Also, in data set [1] (read-out: logP), the logP is 2.11.

In the case of `CC(C)NNC(=O)c1ccco1`, the Ratio in the data set on Rattus norvegicus is recorded as 156.

Turning to `Cc1noc(C)c1C(=O)NNC(C)C`, the Ratio in the data set with Rattus norvegicus worked out at 0. For the same compound, the lipophilicity (logP) in data set [1] (read-out: logP) was 1.2.

For `CC(C)NNC(=O)c1c[nH]nn1`, the Ratio in the data set on Rattus norvegicus was found to be 38.

In the case of `CC(C)NNC(=O)c1ccc(Cl)cc1`, the Ratio in the data set on Rattus norvegicus is given as 134. The logP in data set [1] (read-out: logP) was found to be 2.84.

Turning to `Cc1ccc(C(=O)NNC(C)C)cc1C`, the Ratio with Rattus norvegicus is 76. In data set [1] (read-out: logP), the log partition coefficient (logP) is 3.25.

Consider `CC(C)NNC(=O)c1ccc(N)cc1`, for which, in the data set with Rattus norvegicus, the Ratio came out at 15. In addition, the logP in data set [1] (read-out: logP) was found to be 0.9.

Consider `CC(C)NNC(=O)c1ccncc1` [IPRONIAZID], for which the Ratio with Rattus norvegicus turned out to be 100. Further, the logP in data set [1] is reported as 0.32.

For `Cc1ncc(C(=O)NNC(C)C)c(C)n1`, the Ratio with Rattus norvegicus is 0. For the same compound, the logP in data set [1] (read-out: logP) was -0.4.

As for `CC(C)NNC(=O)c1cc[nH]n1`, the Ratio in the data set on Rattus norvegicus is given as 84.

As for `CC(C)NNC(=O)c1cnccn1`, in the data set with Rattus norvegicus, the Ratio is on record as 152.

Take `CC(C)NNC(=O)c1cccc([N+](=O)[O-])c1`: in the data set with Rattus norvegicus, the Ratio is given as 125. The lipophilicity (logP) in data set [1] (read-out: logP) amounted to 1.85.

`CC(C)NNC(=O)c1cccs1`: in the data set with Rattus norvegicus, the Ratio is recorded as 198. Besides, the logP in data set [1] (read-out: logP) was 1.61.

For `CC(C)NNC(=O)c1ccccn1`, the Ratio in the data set with Rattus norvegicus is 191. The logP in data set [1] (read-out: logP) came to 0.32.

On to `CC(C)NNC(=O)c1cccnc1`, for which the Ratio in the data set with Rattus norvegicus is reported as 111. The lipophilicity (logP) in data set [1] (read-out: logP) came out at 0.32.

With `CC(C)NNC(=O)c1cccnn1`, the Ratio in the data set with Rattus norvegicus is recorded as 0.

Turning to `CC(C)NNC(=O)c1ccsc1`, the Ratio in the data set on Rattus norvegicus is 192. Further, the logP in data set [1] (read-out: logP) came to 1.61.

`CC(C)NNC(=O)c1ccc(O)cc1`: the Ratio in the data set with Rattus norvegicus is on record as 11. Moreover, the lipophilicity (logP) in data set [1] (read-out: logP) amounted to 1.46.

`Cc1ncsc1C(=O)NNC(C)C`: the Ratio in the data set on Rattus norvegicus stood at 38. The logP in data set [1] (read-out: logP) turned out to be 0.44.

In the case of `CC(C)NNC(=O)c1cccc(Cl)c1`, the Ratio with Rattus norvegicus worked out at 123. Further, the logP in data set [1] (read-out: logP) came to 2.84.
